Measured values as given in article PMC9964503, “Effects of Apigenin on Pharmacokinetics of Dasatinib and Probable Interaction Mechanism” (Molecules, 2023).
One block for each molecule: values may come before it.

Legend:
[1] = system: BCRP/ABCG2; experiment: Hepatic and intestinal BCRP/ABCG2 protein expression (immunoblot); type: in vivo, rats
Description: (§1) The animals were categorized into four groups (n = 6) and fasted for 12 h before the experiment. […] orally administered with normal saline for 7 days and Group II was orally administered DAS (25 mg/kg) on the 7th day. Group III was co-administered DAS with APG for 7 days and DAS (25 mg/kg p.o.) on the 7th day, 2 h after APG 40 mg/kg administration, and Group IV was administered with APG 40 mg/kg for 7 days. The blood was collected from the tail vein at various time points after DAS administration and subjected to centrifugation at 5000× g for 10 min to obtain plasma for DAS quantification using ultra pressure liquid chromatography with mass. At the end of the experiment, all animals were euthanized using carbon dioxide, and liver and intestine tissues were harvested and for Western blotting.
(§2) A PierceTM BCA Protein Assay Kit (Thermo Fisher Scientific) was used to extract the total protein from the hepatic and intestinal tissues by bicinchoninic acid technique. Immunoblots were executed as per the methods of Towbin et al. (1979) with slight modification. Briefly, 10% SDS polyacrylamide gels were used to electrophorese 25 μg of hepatic and intestinal epithelial proteins. These proteins were then transferred to activated PVDF membranes and blocked with 4% skim milk and BSA in TBST. After that, membranes were treated with antibodies for CYP3A2 isozymes, active transporters P-glycoprotein/MDR1, BCRP/ABCG2, and β-actin protein expression for an overnight period (4 °C). The membrane strips were incubated with the suitable secondary antibodies for 2 h after repeated washing steps with 1% TBST and TBS (room temperature). The membrane strips were then washed four times with TBST for five minutes each time. Bands were developed using Luminata™ Western Chemiluminescent HRP Substrates (Millipore), followed by densitometric evaluation of the immunoblots.

[2] = system: CYP3A2; experiment: Hepatic and intestinal CYP3A2 protein expression (immunoblot); type: in vivo, rats
Description: as §1, §2

[3] = system: Pgp/MDR1; experiment: Hepatic and intestinal Pgp/MDR1 protein expression (immunoblot); type: in vivo, rats
Description: as §1, §2

[4] = Pharmacokinetics of oral DAS in rats with or without APG pretreatment (UPLC-MS/MS, non-compartmental); type: in vivo; conditions: DAS in rat plasma, DAS 25 mg/kg p.o., alone or after APG 40 mg/kg p.o. for 7 days, mean ± SD
Description: The Central Animal House facility of College of Pharmacy, King Saud University’s, Riyadh, Saudi Arabia, provided 24 healthy adult male Wistar rats (weighing 211–223 g), and the experiment was authorized by the Animal Ethics Committee of the College of Pharmacy, King Saud University (KSU-SE-21-58). All animals were retained in polypropylene cages: 6 animals were caged (n = 6) per cage with a 12-h light/dark cycle, at 25 °C in humane conditions with free access to food and water and adapted to the living conditions one week prior to experiment
as §1
Using UHPLC-MS/MS, DAS concentrations in rat plasma samples were determined. A mixture of DAS and IBR (internal standard) was separated on an Acquity BEH C18 column, and both compounds were eluted at a flow rate of 0.25 mL/min from a mobile phase consisting of acetonitrile, 0.1% formic acid, and 20mM ammonium acetate (95:5). The entire duration of the study was about 2.5 min. The auto-sampler was kept at 10 °C, while the column oven was kept at a constant 40 °C. Electrospray ionization was used to ionize samples in a positive direction. […] Multiple reaction monitoring (MRM) mode detection and quantitation of analyte (DAS) and IS (IBR) employed the precursor to product ion transition of 488.06 and gt; 401.1 and 441.16 and gt; 84.04, respectively. Capillary voltage was 3.4 kV, source temperature was 150 °C, and desolvation temperature was 350 °C for optimum sample ionization using MS/MS. A flow rate of 600 L/h of nitrogen gas was utilized for the desolvation process, whereas a flow rate of 0.18 mL/min of argon gas was used for the collision process. The analyte and IS cone voltages were 46 V and 48 V, and the collision energy was 28 eV and 40 eV, respectively. Precision and accuracy were partially confirmed for the assay using the “US Food and Drug Administration 2018 guideline for bioanalytical technique validation,” and found to be within acceptable ranges of 15% both intra- and inter-day. The samples were acquired using Masslynx 4.1 SCN 805, and then processed using TargetLynks. After making a few modifications to a previously reported study, it was put to use.
A plasma sample of 150 µL was aliquoted into an Eppendorf tube, along with 20 µL of a spiked internal standard (250 ng/mL), and 1 mL of ethyl acetate was also added for the extraction phase. For 10 min at 4 °C and 10,500 rpm, centrifuged samples were shaken for 15 min after being vortexed. Finally, 800 µL of the organic upper layer were transferred to an Eppendorf tube and dried in a sample concentrator at room temperature. Following reconstitution with 150 µL of acetonitrile, the dried residue was transported to UHPLC-MS/MS for 5 µL of analysis.
PK Solver software was employed to calculate the pharmacokinetic parameters using non-compartmental model. The calculated parameters were as follows: half-life (T1/2), elimination rate constant (Kel), time to maximum concentration (Tmax), the maximum concentration (Cmax), area under concentration time curve (AUC), the area under the moment curve (AUMC); the volume of distribution (Vd), the mean residence time (MRT), and clearance (Cl) were examined.

[5] = intestine, APG 40 mg/kg only pretreatment vs normal rats
[6] = liver, APG 40 mg/kg only pretreatment vs normal rats
[7] = intestine, DAS peroral vs normal rats
[8] = liver, DAS peroral vs normal rats

inhibition of intestinal CYP3A2 protein expression [2, 5]: 90.97%
inhibition of hepatic CYP3A2 protein expression [2, 6]: 87.24%
Structure (SMILES): O=c1cc(-c2ccc(O)cc2)oc2cc(O)cc(O)c12 [APG, 4′,5,7-trihydroxyflavone]
inhibition of intestinal BCRP/ABCG2 protein expression [1, 5]: 91.50%
inhibition of hepatic BCRP/ABCG2 protein expression [1, 6]: 91.05%
inhibition of intestinal Pgp/MDR1 protein expression [3, 5]: 87.84%
inhibition of hepatic Pgp/MDR1 protein expression [3, 6]: 90.67%

Structure (SMILES): Cc1nc(Nc2ncc(C(=O)Nc3c(C)cccc3Cl)s2)cc(N2CCN(CCO)CC2)n1 [DAS, Dasatinib]
induction of intestinal BCPR/ABCG2 protein expression [1, 7]: 95.66%
induction of hepatic BCPR/ABCG2 protein expression [1, 8]: 92.55%
AUC0-t [4]: 1.63584 ± 0.04529 µg·h/mL
AUMC0-inf_obs [4]: 16200.10 ± 1656.57 ng/mL × h^2
Cl [4]: 0.012 ± 0.0005 (mg/kg)/(ng/mL)/h
Cmax [4]: 0.26306 ± 0.01233 µg/mL
Vd [4]: 0.087 ± 0.005 (mg/kg)/(ng/mL)
Tmax ([4]; male, Wistar, po): 1 h
half-life ([4]; male, Wistar, po): 4.97 ± 0.48 h
k el ([4]; male, Wistar, po): 3.89e-05 s⁻¹
AUC(0-inf) ([4]; male, Wistar, po, read-out: AUC0-inf_obs): 2.06 ± 0.097 µg·h/mL
MRT inf ([4]; male, Wistar, po, read-out: MRT 0-inf_obs): 7.84 ± 0.46 h
increase of intestinal CYP3A2 protein expression ([2]; intestine, DAS administered rats vs normal control rats): 79.13%
induction of intestinal Pgp/MDR1 protein expression [3, 7]: 91.65%
induction of hepatic Pgp/MDR1 protein expression [3, 8]: 93.08%
